Patent US20100130549A1, “PSYCHOTROPIC COMPOUNDS, COMPOSITIONS AND METHODS OF USE” (priority 2007, published 2010)

Experiments:
BALB/c mice = assay: Rotor rod test (motor activity); assay type: in vivo; settings: 10 mg/kg p.o., 90 min after administration; vs controls
Procedure: The test was performed 90 min after oral administration of the compounds. […] The rotor rod test involves placing the mouse on an elevated rotating bar. In this test, the mouse is placed on the bar such that it is facing the direction opposite to the rotation of the rod. The time lag to fall is determined.

[1] = target: Serotonin (5-Hydroxytryptamine) 5-HT2A (Homo sapiens, UniProt P28223); assay: Radioligand binding assay, 5-HT2A
Chain of Serotonin (5-Hydroxytryptamine) 5-HT2A (P28223 whole entry): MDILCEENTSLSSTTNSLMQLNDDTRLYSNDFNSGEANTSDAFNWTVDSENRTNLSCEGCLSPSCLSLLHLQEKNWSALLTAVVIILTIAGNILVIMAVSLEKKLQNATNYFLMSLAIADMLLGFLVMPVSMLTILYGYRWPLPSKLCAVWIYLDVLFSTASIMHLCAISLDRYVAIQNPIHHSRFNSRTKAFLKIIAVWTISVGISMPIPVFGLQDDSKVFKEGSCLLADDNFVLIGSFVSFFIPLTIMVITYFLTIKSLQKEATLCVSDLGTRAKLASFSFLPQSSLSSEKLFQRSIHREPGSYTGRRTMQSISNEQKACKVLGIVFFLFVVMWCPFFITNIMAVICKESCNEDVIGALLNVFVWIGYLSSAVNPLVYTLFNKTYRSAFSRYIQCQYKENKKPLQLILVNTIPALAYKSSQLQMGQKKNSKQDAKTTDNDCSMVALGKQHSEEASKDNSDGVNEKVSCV
Source text: . Table 1 provides data produced via a receptor binding assay and IC50 and Ki determination. […] In addition, the compound of formula (Ia) has a potent DAT inhibition, which is indicative of dopaminergic uptake inhibition and increased DA activity. In addition to the effect on SERT and DAT, the compound of formula (Ia) inhibited the transporter of Norepinephrine (NET), and several neurotransmitter's receptors like alpha2A and alpha2C receptors, alpha 1A and alphal C, 5HT2A and 5HT2C, signal histamine2 and dopamine D1. This specific profile is in line with the data on antidepressant, anxiolytic and moderate neuro-stimulation activity observed in the animal model studies.
(§1) With regard to the data provided in Table 1, the biochemical assay results are presented as the percent inhibition of specific binding or activity throughout the report. For primary assays, only the lowest concentration with a significant response judged by the assays’ criteria, is shown in this summary. […] Unless otherwise requested, primary screening in duplicate with quantitative data (e.g., IC50±SEM, Ki±SEM and nH) are shown.

[2] = target: Transporter, Serotonin (5-Hydroxytryptamine) (SERT) (Homo sapiens, UniProt P31645); assay: Radioligand binding assay, Serotonin transporter
Chain of Transporter, Serotonin (5-Hydroxytryptamine) (SERT) (P31645 whole entry): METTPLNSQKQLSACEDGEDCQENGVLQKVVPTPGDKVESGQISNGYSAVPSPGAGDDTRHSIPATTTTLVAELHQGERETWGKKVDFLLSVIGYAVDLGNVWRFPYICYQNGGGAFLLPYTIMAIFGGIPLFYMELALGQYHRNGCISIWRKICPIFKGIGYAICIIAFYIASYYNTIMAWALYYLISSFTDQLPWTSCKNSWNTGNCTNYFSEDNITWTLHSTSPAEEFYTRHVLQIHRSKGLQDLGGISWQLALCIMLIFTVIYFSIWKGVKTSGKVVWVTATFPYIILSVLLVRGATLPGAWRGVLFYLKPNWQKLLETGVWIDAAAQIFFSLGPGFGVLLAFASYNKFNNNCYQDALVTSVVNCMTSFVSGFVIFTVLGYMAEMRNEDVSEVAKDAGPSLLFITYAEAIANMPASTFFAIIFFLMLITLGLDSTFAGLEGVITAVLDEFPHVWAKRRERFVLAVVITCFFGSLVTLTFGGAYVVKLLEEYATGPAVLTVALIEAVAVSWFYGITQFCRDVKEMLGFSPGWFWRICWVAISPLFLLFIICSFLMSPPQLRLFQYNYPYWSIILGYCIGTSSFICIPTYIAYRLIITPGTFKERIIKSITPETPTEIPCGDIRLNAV
Source text: as §1

Q: What does the source list for `CN[C@H]1CC[C@@H](c2ccc(Cl)c(Cl)c2)c2ccc(C#CCCCO)cc21` [compound Ia, (1S-cis)-4-(3,4-dichlorophenyl)-7-(5-hydroxy-1-pentyn-1-yl)-1,2,3,4-tetrahydro-N-methyl-1-naphthalenamine hydroiodide]?
A: muscle strength and basic motor activity (BALB/c mice): did not modify; IC50 [1]: 3370 nM; nH [1]: 1.06; inhibition at 10 µM ([1]; read-out: % INH.): 81%; Ki ([1]; read-out: K1): 965 nM; IC50 [2]: < 300 nM; inhibition at 0.03 µM ([2]; 0.03 μM): 86%; Ki ([2]; read-out: SERT final Ki): 1.09 nM
